Experimental data reported in patent publication US9040715B2 (priority 2008, dated 2015).
Values after ≈ are worked out from the molar mass of the structure shown.

Experiments:
[1] = tested on: Huh7 cells; experiment: Neutral red uptake assay (cytotoxicity); format: cell-based, human
Description: The neutral red uptake assay is a cytotoxicity test that is based on the ability of viable cells to incorporate and bind the supra-vital dye neutral red in the lysosomes. This weakly cationic dye penetrates cell membranes by non-ionic passive diffusion and concentrates in the lysosomes, where it binds by electrostatic hydrophobic bonds to anionic and phosphate groups of the lysosomal matrix. The dye is then extracted from the viable cells using an acidified ethanol solution, and the absorbance of the solubilized dye is read. When the cell dies or the pH gradient is reduced, the dye is not retained and consequently, the amount of retained dye is proportional to the number of viable cells. Most primary cells and cell lines can be used for this method. The HepG2 and Huh7, two human hepatoma cell lines, were used for this study. The cells were seeded in 96-well tissue culture plates and treated for 48 hours with the compounds. The plates were then incubated for 2 hours with a medium containing neutral red. The cells were subsequently washed, the dye was extracted in each well, and the absorbance was read using a spectrophotometer (FIG. 3 and Table 11).

[2] = tested on: Huh7 or HepG2 cell line; experiment: MTT assay (cytotoxicity); format: cell-based, human; conditions: 24 hours and 48 hours
Protocol: The MTT assay is a colorimetric assay that measures the reduction of yellow 3-(4,5-dimethylhiazol-2-yl)-2,5-diphenyl tetrazolium bromide (MTT) by mitochondrial succinate dehydrogenase. The MTT enters the cells and passes into the mitochondria where it is reduced to an insoluble, dark purple, formazan product. The cells are then solubilized with an organic solvent (e.g., isopropanol) and the released, solubilized formazan reagent is measured spectrophotometrically. Since reduction of MTT can only occur in metabolically active cells, the level of activity is a measure of the viability of the cells.
Cells of the Huh7 or HepG2 cell line were seeded in a 96 well plate. The plate was incubated overnight at 37° C. in a humidified incubator, 5% CO2. The test compounds were added to the plate. Different concentrations of drug were tested in triplicate along with a negative control. The final volume was adjusted to 100 μl per well. The plate was incubated overnight at 37° C. in a humidified incubator, 5% CO2. After 24 hours and 48 hours, MTT reagent (5 mg/ml, 10 μl/100 μl per well of the 96 well plate) was added and incubated at 37° C. for 3 hours. After 3 hours, 100 μl of the DMSO solution was added to each well and the plate was rocked at room temperature for 1 hour. The plate was then read on a plate reader at […].

[3] = tested on: Saccharomyces cerevisiae (YPH501); experiment: Anti-fungal/anti-yeast activity: MIC50 (broth microdilution) and MFC; format: cell-based; conditions: for MFC / MIC: Saccharomyces cerevisiae; for Activity (fungicidal/fungistatic) / Ratio MFC/MIC: Saccharomyces cerevisiae (YPH501); for MIC: read-out: MIC-50
[4] = tested on: Candida albicans (CAF-2); experiment: as above; format: cell-based; conditions: for MIC: read-out: MIC-50
How it was run: (§1)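 CLSI M27-A2 microdilution; RPMI-1640; drug 0.2-100 μg/ml final; 1.0×10^3 Candida or 2.0×10^3 Aspergillus cells/well. Read at 24 h and 48 h, visual plus A550. MIC50: ≥50% growth drop vs control. MFC: 48 h wells subcultured or spotted onto YPD, 30° C, 48 h.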

[5] = tested on: Candida glabrata; experiment: as above; format: cell-based; conditions: for Activity (fungicidal/fungistatic) / Ratio MFC/MIC: Candida glabrata; for MFC / MIC: Nakaseomyces glabratus; for MIC: read-out: MIC-50
How it was run: as §1

[6] = tested on: Candida lusitaniae; experiment: as above; format: cell-based; conditions: for Activity (fungicidal/fungistatic) / Ratio MFC/MIC: Candida lusitaniae; for MFC / MIC: Clavispora lusitaniae; for MIC: read-out: MIC-50
How it was run: as §1

[7] = tested on: Aspergillus fumigatus; experiment: as above; format: cell-based
How it was run: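 Cells grown 24 h on YPD at 30° C were seeded into RPMI-1640 holding compound (0.2-100 μg/ml final) at 1.0×10^3 Candida or 2.0×10^3 Aspergillus cells per well. After 24 and 48 h, growth was scored by eye and at 550 nm. Wells from 48 h were then plated on YPD for 48 h at 30° C to obtain MFC.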

[8] = tested on: Candida tropicalis; experiment: as above; format: cell-based; conditions: for MIC: read-out: MIC-50
How it was run: as §1

[9] = tested on: Candidia parapsilosis; experiment: as above; format: cell-based; conditions: for Activity (fungicidal/fungistatic) / Ratio MFC/MIC: Candidia parapsilosis; for MIC: read-out: MIC-50
How it was run: as §1

[10] = tested on: Candida apicola; experiment: as above; format: cell-based; conditions: for Activity (fungicidal/fungistatic) / MIC-50 / Ratio MFC/MIC: Candida apicola; for MFC: Starmerella apicola
How it was run: as §1

[11] = tested on: C. albicans Mutants; experiment: MIC50 in C. albicans mutant strains; format: cell-based; conditions: Candida albicans
Protocol: (§2) The minimum inhibitory concentrations resulting in 50% growth inhibition (MIC50) of […] Candida species (C. albicans, C. tropicalis and C. glabrata, C. lusitaniae, C. parapsilosis, and C. apicola) as well as Aspergillus fumigatus to a set of novel synthetic compounds was determined in accordance with the guidelines in CLSI document M27-A2 (Clinical and Laboratory Standards Institute; Wayne, Pa.). The total volume of cells and drug was 100 μL per microtiter well, and each drug was diluted in RPMI to achieve final concentrations of 0.2-100 μg/ml. Uninoculated cultures were used as a reference standard. Stock inoculum suspensions were prepared from 24 hour cultures on YPD (yeast extract/peptone/dextrose) media at 30° C. For MIC determinations, an inoculum of 1.0×10^3 cells of Candidia and 2.0×10^3 cells of Aspergillus per well were used, and cells in diluted drugs were prepared in RPMI-1640 medium. MICs were determined both visually and spectrophotometrically at 24 hours and 48 h at 550 nm using a micro plate reader. The MIC50 endpoint was measured as the lowest drug concentration resulting in a reduction of growth of 50% or more compared with growth of the control.
(§3) The MIC50 of Compounds I-1, I-2, and I-5 in several mutant strains of Candida albicans, including fluconazole resistant clinical strains, was determined according to the methods described in Example 1 (see Table 9). The activity of Compound I-1 against fluconazole resistant strains was further explored (see Table 10). In Table 10, Strain #1 is a fluconazole sensitive Candida albicans strain; Strain #17 is a fluconazole resistant Candida albicans strain; C. albicans CS#01 is a first clinical strain; C. albicans CS#02 is a second clinical strain.

[12] = tested on: Fluconazole Resistant C. albicans; experiment: microbe, parasite or virus in culture; format: cell-based; conditions: Candida albicans
Protocol: as §2, §3

`CN(Cc1ccccc1)C(=O)Cn1sc2ccccc2c1=O` [Compound I-1] was tested, and the “Percentage Viability” value ([1]; 3.3 μg/mL (approx 1X MIC)) was greater than 100%, the “Percentage Viability” value ([1]; 10 μg/mL (approx 3X MIC)) was greater than 100% and the “Percentage Viability” value ([1]; 33 μg/mL (approx 10X MIC)) was greater than 100%. The “Percentage Viability” value ([1]; 100 μg/mL (approx 30X MIC)) was 83%, the “Toxicity to mammalian cell lines (MTT assay)” value [2] was “minimally toxic” and the MFC [3] was 3.2 µg/mL (≈ 10.2 µM). The “Activity (fungicidal/fungistatic)” value [3] was “fungicidal (An MFC/MIC ratio of less than four indicates that the compound is fungicidal)”, the “Ratio MFC/MIC” value [3] was 2 and the MIC [3] was 1.6 µg/mL (≈ 5.12 µM). The “Activity (fungicidal/fungistatic)” value [4] was “fungicidal (An MFC/MIC ratio of less than four indicates that the compound is fungicidal)”, the MFC [4] was 6 µg/mL and the “Ratio MFC/MIC” value [4] was 2. The MIC [4] was 3.2 µg/mL, the “Activity (fungicidal/fungistatic)” value [5] was “fungicidal (An MFC/MIC ratio of less than four indicates that the compound is fungicidal)” and the “Ratio MFC/MIC” value [5] was 2. The MFC [5] was 12.5 µg/mL, the MIC [5] was 6.2 µg/mL and the “Activity (fungicidal/fungistatic)” value [6] was “fungicidal (An MFC/MIC ratio of less than four indicates that the compound is fungicidal)”. The “Ratio MFC/MIC” value [6] was 1, the MFC [6] was 3.2 µg/mL and the MIC [6] was 3.2 µg/mL. For the same compound, the “Activity (fungicidal/fungistatic)” value [7] was “fungistatic (an MFC/MIC ratio of greater than four indicates that the compound is fungistatic)”, the MFC [7] was 100 µg/mL and the MIC50 [7] was 25 µg/mL. The “Ratio MFC/MIC” value [7] was 4, the “Activity (fungicidal/fungistatic)” value [8] was “fungicidal (An MFC/MIC ratio of less than four indicates that the compound is fungicidal)” and the MFC [8] was 3.2 µg/mL. The “Ratio MFC/MIC” value [8] was 1, the MIC [8] was 3.2 µg/mL and the MFC [9] was 3.2 µg/mL. For the same compound, the “Activity (fungicidal/fungistatic)” value [9] was “fungicidal (An MFC/MIC ratio of less than four indicates that the compound is fungicidal)”, the “Ratio MFC/MIC” value [9] was 1 and the MIC [9] was 3.2 µg/mL. The “Activity (fungicidal/fungistatic)” value [10] was “fungicidal (An MFC/MIC ratio of less than four indicates that the compound is fungicidal)”, the MIC-50 [10] was 3.2 µg/mL and the “Ratio MFC/MIC” value [10] was 1. For the same compound, the MFC [10] was 3.2 µg/mL, the MIC50 ([11]; C. albicans strain CAF-2) was 3 µg/mL (≈ 9.6 µM) and the MIC50 ([11]; C. albicans strain CHK11) was 3 µg/mL (≈ 9.6 µM). For the same compound, the MIC50 ([11]; C. albicans strain CHK21) was 3 µg/mL (≈ 9.6 µM), the MIC50 ([11]; C. albicans strain CHK23) was 3 µg/mL (≈ 9.6 µM) and the MIC50 ([11]; C. albicans strain GOA31) was 6 µg/mL (≈ 19.2 µM). The MIC50 ([11]; C. albicans strain GOA32) was 3 µg/mL (≈ 9.6 µM), the MIC50 ([12]; C. albicans CS#01, first clinical strain) was 3 µg/mL (≈ 9.6 µM) and the MIC50 ([12]; C. albicans CS#02, second clinical strain) was 3 µg/mL (≈ 9.6 µM). The MIC50 ([12]; Strain #1, fluconazole sensitive Candida albicans strain) was 3 µg/mL (≈ 9.6 µM) and the MIC50 ([12]; Strain #17, fluconazole resistant Candida albicans strain) was 6 µg/mL (≈ 19.2 µM).

`O=C(Cn1sc2ccccc2c1=O)Nc1ccccc1Oc1ccccc1` [Compound I-2] was tested, and the “Percentage Viability” value ([1]; 3.3 μg/mL (approx 1X MIC)) was greater than 100%, the “Percentage Viability” value ([1]; 10 μg/mL (approx 3X MIC)) was greater than 100% and the “Percentage Viability” value ([1]; 33 μg/mL (approx 10X MIC)) was greater than 100%. For the same compound, the “Percentage Viability” value ([1]; 100 μg/mL (approx 30X MIC)) was 75%, the “Toxicity to mammalian cell lines (MTT assay)” value [2] was “minimally toxic” and the MFC [3] was 3.2 µg/mL (≈ 8.5 µM). The “Activity (fungicidal/fungistatic)” value [3] was “fungicidal (An MFC/MIC ratio of less than four indicates that the compound is fungicidal)”, the “Ratio MFC/MIC” value [3] was 2 and the MIC [3] was 1.6 µg/mL (≈ 4.25 µM). The “Activity (fungicidal/fungistatic)” value [4] was “fungicidal (An MFC/MIC ratio of less than four indicates that the compound is fungicidal)”, the MFC [4] was 3.2 µg/mL and the “Ratio MFC/MIC” value [4] was 1. The MIC [4] was 3.2 µg/mL, the “Activity (fungicidal/fungistatic)” value [5] was “fungicidal (An MFC/MIC ratio of less than four indicates that the compound is fungicidal)” and the “Ratio MFC/MIC” value [5] was 2. For the same compound, the MFC [5] was 3.2 µg/mL, the MIC [5] was 1.6 µg/mL and the “Activity (fungicidal/fungistatic)” value [6] was “fungicidal (An MFC/MIC ratio of less than four indicates that the compound is fungicidal)”. The “Ratio MFC/MIC” value [6] was 2, the MFC [6] was 3.2 µg/mL and the MIC [6] was 1.6 µg/mL. For the same compound, the “Activity (fungicidal/fungistatic)” value [7] was “fungistatic (an MFC/MIC ratio of greater than four indicates that the compound is fungistatic)”, the MFC [7] was 50 µg/mL and the MIC50 [7] was 12.5 µg/mL. For the same compound, the “Ratio MFC/MIC” value [7] was 4, the “Activity (fungicidal/fungistatic)” value [8] was “fungicidal (An MFC/MIC ratio of less than four indicates that the compound is fungicidal)” and the MFC [8] was 3.2 µg/mL. For the same compound, the “Ratio MFC/MIC” value [8] was 1, the MIC [8] was 3.2 µg/mL and the MFC [9] was 3.2 µg/mL. The “Activity (fungicidal/fungistatic)” value [9] was “fungicidal (An MFC/MIC ratio of less than four indicates that the compound is fungicidal)”, the “Ratio MFC/MIC” value [9] was 2 and the MIC [9] was 1.6 µg/mL. For the same compound, the “Activity (fungicidal/fungistatic)” value [10] was “fungicidal (An MFC/MIC ratio of less than four indicates that the compound is fungicidal)”, the MIC-50 [10] was 6.4 µg/mL and the “Ratio MFC/MIC” value [10] was 1. It also gave an MFC [10] of 6.4 µg/mL, an MIC50 ([11]; C. albicans strain CAF-2) of 3 µg/mL (≈ 7.97 µM) and an MIC50 ([11]; C. albicans strain CHK11) of 12.5 µg/mL (≈ 33.2 µM). For the same compound, the MIC50 ([11]; C. albicans strain CHK21) was greater than 100 µg/mL, the MIC50 ([11]; C. albicans strain CHK23) was 25 µg/mL (≈ 66.4 µM) and the MIC50 ([11]; C. albicans strain GOA31) was 3 µg/mL (≈ 7.97 µM). For the same compound, the MIC50 ([11]; C. albicans strain GOA32) was 3 µg/mL (≈ 7.97 µM).
